Reference: US4740498A, “Fibronectin preparations” (Green Cross Corporation, priority 1984, dated 1988)

Tested on: corneal epithelium of rabbits
Test: Therapeutic effect in model of corneal disturbance (refrigeration trauma on the corneal epithelium)
Format: in vivo
Settings: 400 μg/ml into the eyes, FN = eye drops of Example 2, albumin = control
Method: The therapeutic effect of the FN preparations of the present invention was examined using a model of corneal disturbance in rabbits. The model was prepared by applying liquid nitrogen to the eyes of rabbits to cause refrigeration trauma on the corneal epithelium. The FN eye drops prepared in Example 2 were administered into the eyes thus suffering from corneal disturbance at a dose of 400 μg-FN/ml, and the wound surface area was measured with the passage of time. As a control, 400 μg/ml of albumin was used.

Albumin
Wound Surface Area, 0 Day (0 Day): 45 mm^2
Wound Surface Area, 1 Day (1 Day): 31 mm^2
Wound Surface Area, 2 Days (2 Days): 33 mm^2
Wound Surface Area, 3 Days (3 Days): 25 mm^2
Wound Surface Area, 4 Days (4 Days): 14 mm^2
